Experimental data from paper PMC12040169 (PLOS Biology, 2025).

test: in vitro; details: human, hela cells, % viability

| Compound | viability at 28.5 h, 10 µM [%] |
| --- | --- |
| CCOC(=O)CN1CCC(Oc2nccnc2OCc2cc(C)on2)CC1 [CBK082960T] | 105 |
| Cc1cc(COc2nccnc2OC2CCN(CCN3CCOCC3)CC2)no1 [CBK082961T] | 103 |
| CSCCN1CCC(Oc2nccnc2OCc2cc(C)on2)CC1 [CBK082966T] | 89.7 |
| Fc1ccccc1CN1CCC(Oc2nccnc2OCC2COc3ccccc3O2)CC1 (stereo not shown) [CBK082979T] | 101 |
| NC(=O)CN1CCC(Oc2nccnc2OCC2COc3ccccc3O2)CC1 (stereo not shown) [CBK082987T] | 92.1 |
| CCOC(=O)CN1CCC(Oc2nccnc2OCC2COc3ccccc3O2)CC1 (stereo not shown) [CBK082989T] | 96.6 |
| N#CCCCN1CCC(Oc2nccnc2OCC2COc3ccccc3O2)CC1 (stereo not shown) [CBK082994T] | 86.8 |
| CSCCN1CCC(Oc2nccnc2OCC2COc3ccccc3O2)CC1 (stereo not shown) [CBK082996T] | 92.7 |
| c1ccc2c(c1)OCC(COc1nccnc1OC1CCN(CC3CC3)CC1)O2 (stereo not shown) [CBK083001T] | 96.5 |
| Fc1ccc(Oc2nccnc2N2CCN(Cc3ccc(Cl)c(Cl)c3)CC2)cc1 [CBK083007T] | 92.3 |
| Fc1ccc(Oc2nccnc2N2CCN(Cc3ccccc3F)CC2)cc1 [CBK083009T] | 91.8 |
| Fc1ccc(Oc2nccnc2N2CCN(Cc3ccc(Cl)cc3)CC2)cc1 [CBK083010T] | 80.4 |
| O=[N+]([O-])c1ccc(CN2CCN(c3nccnc3Oc3ccc(F)cc3)CC2)cc1 [CBK083015T] | 92.2 |
| NC(=O)CN1CCN(c2nccnc2Oc2ccc(F)cc2)CC1 [CBK083018T] | 98.3 |
| CCN(CC)C(=O)CN1CCN(c2nccnc2Oc2ccc(F)cc2)CC1 [CBK083020T] | 87.9 |
| O=c1[nH]c2ccccc2n1CCCN1CCN(c2nccnc2Oc2ccc(F)cc2)CC1 [CBK083027T] | 88.2 |
| CSCCN1CCN(c2nccnc2Oc2ccc(F)cc2)CC1 [CBK083028T] | 93.2 |
| Fc1ccc(Oc2nccnc2N2CCN(CC3CC3)CC2)cc1 [CBK083033T] | 91.8 |
| COc1ccc(Oc2nccnc2N2CCN(Cc3ccc(Cl)cc3)CC2)cc1OC [CBK083041T] | 87.3 |
| COc1ccc(Oc2nccnc2N2CCN(Cc3ccc(C(F)(F)F)cc3)CC2)cc1OC [CBK083044T] | 102 |
| COc1ccc(Oc2nccnc2N2CCN(Cc3ccc([N+](=O)[O-])cc3)CC2)cc1OC [CBK083046T] | 86.4 |
| COc1ccc(Oc2nccnc2N2CCN(Cc3ccc4c(c3)OCO4)CC2)cc1OC [CBK083048T] | 106 |

| Compound | viability at 28.5 h, 10 µM [%] |
| --- | --- |
| COc1ccc(Oc2nccnc2N2CCN(CC3CCCCC3)CC2)cc1OC [CBK083064T] | 98.6 |
| COc1ccc(Oc2nccnc2N2CCN(CCc3ccccn3)CC2)cc1OC [CBK083067T] | 93.2 |
| Clc1ccc(COc2nccnc2N2CCN(Cc3ccc4c(c3)OCO4)CC2)cc1Cl [CBK083078T] | 109 |
| NC(=O)CN1CCN(c2nccnc2OCc2ccc(Cl)c(Cl)c2)CC1 [CBK083079T] | 111 |
| N#CCCCN1CCN(c2nccnc2OCc2ccc(Cl)c(Cl)c2)CC1 [CBK083086T] | 94 |
| O=[N+]([O-])c1ccc(CN2CCC(Oc3nccnc3OCc3ccc(Cl)c(Cl)c3)CC2)cc1 [CBK083107T] | 104 |
| NC(=O)CN1CCC(Oc2nccnc2OCc2ccc(Cl)c(Cl)c2)CC1 [CBK083110] | 104 |
| Clc1ccc(COc2nccnc2OC2CCN(CC3CC3)CC2)cc1Cl [CBK083123T] | 92.4 |
| Clc1ccc(CN2CCN(c3nccnc3OCc3cccnc3)CC2)cc1Cl [CBK083128T] | 105 |
| Clc1ccc(CN2CCN(c3nccnc3OCc3cccnc3)CC2)cc1 [CBK083130T] | 99.6 |
| FC(F)(F)c1ccc(CN2CCN(c3nccnc3OCc3cccnc3)CC2)cc1 [CBK083133T] | 101 |
| CCN(CC)C(=O)CN1CCN(c2nccnc2OCc2cccnc2)CC1 [CBK083140] | 100 |
| c1cncc(COc2nccnc2N2CCN(CCN3CCOCC3)CC2)c1 [CBK083141] | 104 |
| N#CCCCN1CCN(c2nccnc2OCc2cccnc2)CC1 [CBK083144] | 96.3 |
| Fc1ccccc1CN1CCC(Oc2nccnc2OCc2cccnc2)CC1 [CBK083157T] | 91.8 |
| c1cncc(COc2nccnc2OC2CCN(Cc3cccnc3)CC2)c1 [CBK083158] | 108 |
| CCN(CC)c1ccc(C(=O)CN2CCC(Oc3nccnc3OCc3cccnc3)CC2)cc1 [CBK083167T] | 112 |
| N#CCCCN1CCC(Oc2nccnc2OCc2cccnc2)CC1 [CBK083171] | 85.9 |
| COc1ccc(CCN2CCC(Oc3nccnc3OCc3cccnc3)CC2)cc1OC [CBK083179T] | 99 |
| c1cncc(COc2nccnc2OC2CCN(CCOc3cccnc3)CC2)c1 [CBK083181] | 92.1 |
| CCC1CCCCN1C(=O)c1ccccc1C(=O)OC (stereo not shown) [CBK083196] | 92.4 |
| Cc1ccccc1C(NC(=O)C1CCN(C(=O)OCc2ccccc2)CC1)c1ccc(=O)[nH]c1 (stereo not shown) [CBK083200] | 85.7 |

| Compound | viability at 28.5 h, 10 µM [%] |
| --- | --- |
| FC(F)(F)c1ccc(CN2CCCN(c3ccnc(OCC4COc5ccccc5O4)n3)CC2)cc1 (stereo not shown) [CBK083233T] | 93 |
| NC(=O)CN1CCCN(c2ccnc(OCC3COc4ccccc4O3)n2)CC1 (stereo not shown) [CBK083236T] | 91.4 |
| COc1ccc(CN2CCCN(c3cc(OCC4COc5ccccc5O4)ncn3)CC2)cc1 (stereo not shown) [CBK083255T] | 88 |
| CCN(CC)C(=O)CN1CCCN(c2cc(OCCN3C(=O)CCC3=O)ncn2)CC1 [CBK083266T] | 102 |
| FC(F)(F)c1ccc(CN2CCCN(c3cc(OC4CCCCC4)ncn3)CC2)cc1 [CBK083277T] | 112 |
| COc1ccc(CN2CCCN(c3cc(OC4CCCCC4)ncn3)CC2)cc1 [CBK083278T] | 107 |
| Cc1cccc(C)c1NC(=O)CN1CCCN(c2cc(OCCN3C(=O)CCC3=O)ncn2)CC1 [CBK083313T] | 97.9 |
| Cc1cc(COc2cc(N3CCCN(Cc4ccc5c(c4)OCO5)CC3)ncn2)no1 [CBK083335T] | 95.7 |
| O=C1CCc2c(Cc3c(Cl)cccc3Cl)c(O)nn21 [CBK083470] | 91.3 |
| Brc1cncc2c1ccn2CCN1CCOCC1 [CBK083479] | 87.1 |
| COc1ccc(C(=O)CCCN2CC3CCC(NC(=O)Nc4ccc(F)c(F)c4)CC3C2)cc1 (stereo not shown) [CBK083514T] | 109 |
| COc1ccc(C(=O)CCCN2CCc3c([nH]c4ccc(OC)cc34)C2)cc1 [CBK083515T] | 101 |
| CC(C)(C)OC(=O)N1CCC2(CC1)NC(=O)c1cc(-c3cccnc3)ccc1O2 [CBK083517] | 94.1 |
| Cc1ccc(C(=O)N2CCC(CO)CC2)cc1C [CBK083532] | 93.8 |
| COC(=O)N1CC2(CCCCC2NCCC(F)(F)F)c2ccccc21 (stereo not shown) [CBK083539T] | 90 |
| COC(=O)N1CC2(CCCCC2NCC2CCCO2)c2ccccc21 (stereo not shown) [CBK083541T] | 95.2 |
| CC1=NN(C(=O)C2CC2)C(=O)C1Cc1ccc(F)cc1 (stereo not shown) [CBK083561] | 89.9 |
| Nc1ccc(C(=O)Oc2ccc(Oc3ccccc3)cc2)cc1 [CBK083570] | 90.5 |
| COc1ccc(OC(=O)c2ccc3nonc3c2)cc1 [CBK083571] | 97.9 |
| CCOc1ccc(OC(=O)c2cccc(C)c2)cc1 [CBK083575] | 101 |
| COc1ccc(C(NC(=O)NNC(=O)Cc2ccc(Cl)cc2)c2ccccc2C)cn1 (stereo not shown) [CBK083660] | 96.1 |
| Cc1ccc(C(=O)NC2CCCCCC2)cc1C [CBK083665] | 86 |

| Compound | viability at 28.5 h, 10 µM [%] |
| --- | --- |
| Cc1ccc(C(=O)N(C)C2CCCCC2)cc1C [CBK083667] | 137 |
| CC(C)(C)OC(=O)N1CCC2(CC1)NC(=O)c1cc(-c3cccc4ncccc34)ccc1O2 [CBK083674] | 109 |
| Nc1c(-c2cc(F)cc(F)c2)cnc2ncccc12 [CBK083677] | 111 |
| CSc1ccc(-c2cnc3ncccc3c2N)cc1 [CBK083680] | 101 |
| Nc1c(-c2cccc(C(F)(F)F)c2)cnc2ncccc12 [CBK083710] | 105 |
| CC(C)C(=O)Nc1c(-c2ccccc2)cnc2ncccc12 [CBK083713] | 94.8 |
| CC(C)C(=O)Nc1ccc(-c2ccccc2)c2ccccc12 [CBK083731] | 101 |
| CS(=O)(=O)Nc1ccc(-c2ccccc2)c2ccccc12 [CBK083741] | 93.2 |
| CS(=O)(=O)Nc1ccc(-c2ccsc2)c2ccccc12 [CBK083742] | 98.7 |
| CS(=O)(=O)Nc1ccc(-c2cc(F)cc(F)c2)c2ccccc12 [CBK083743] | 89.8 |
| COc1cc(F)ccc1-c1ccc(NS(C)(=O)=O)c2ccccc12 [CBK083744] | 97.9 |
| COc1ccc(C(C)C)cc1-c1ccc(NS(C)(=O)=O)c2ccccc12 [CBK083747] | 97.8 |
| CS(=O)(=O)Nc1ccc(-c2ccc3c(c2)CCO3)c2ccccc12 [CBK083753] | 76.5 |
| CC(C)C(=O)Nc1ccc(-c2ccsc2)c2ccccc12 [CBK083758] | 92.7 |
| COc1ccc(CN2CCCN(c3ccnc(OCCN4CCOCC4)n3)CC2)cc1 [CBK083800] | 99.2 |
| CCN1CCCN(c2ccnc(OCCN3CCOCC3)n2)CC1 [CBK083807] | 114 |
| OCCCN1CCCN(c2ccnc(OCCN3CCOCC3)n2)CC1 [CBK083808] | 104 |
| c1ccc(CCN2CCCN(c3ccnc(OCCN4CCOCC4)n3)CC2)cc1 [CBK083810] | 89.3 |
| CCOC(=O)CN1CCCN(c2ccnc(OC3CCCCC3)n2)CC1 [CBK083864] | 90.9 |
| c1ccc(OCCN2CCCN(c3nccc(OCCN4CCOCC4)n3)CC2)cc1 [CBK083940] | 110 |
| FC(F)(F)c1ccc(CN2CCCN(c3nccc(OCc4ccc(Cl)c(Cl)c4)n3)CC2)cc1 [CBK083949] | 94.5 |
| COc1ccc(CCN2CCCN(c3nccc(OCc4ccc(Cl)c(Cl)c4)n3)CC2)cc1OC [CBK083965] | 96.4 |
